Reference: patent US11969433B2, “Compositions and methods for muscle regeneration using prostaglandin E2” (The Board of Trustees of the Leland Stanford Junior …, priority 2016, dated 2024)

Tests used:
MuSCs [1] = assay: Young MuSC numbers after acute PGE2 treatment, hydrogel culture (hemocytometer count); type: cell-based, mouse; conditions: ONO-AE3-208 1 μM, PGE2 10 ng/ml, 24 hr
Experimental: (§1) Following isolation, we resuspended MuSCs in myogenic cell culture medium containing DMEM/F10 (50:50), 15% FBS, 2.5 ng ml^−1 fibroblast growth factor-2 (FGF-2 also known as bFGF) and 1% penicillin-streptomycin. We seeded MuSC suspensions at a density of 500 cells per cm^2 surface area. We maintained cell cultures at 37° C. in 5% CO2 and changed medium daily. […]
(§2) To assay proliferation, we used three different assays (hemocytometer, VisionBlue, and EdU). […] For hemocytometer cell number count, we collected cells at indicated timepoints by incubation with 0.5% trypsin in PBS for 5 min at 37° C. and quantified them using a hemocytometer at least 3 times. Additionally, we used the VisionBlue Quick Cell Viability Fluorometric Assay Kit (BioVision, catalog #K303) as a readout for cell growth in culture. Briefly, we incubated MuSCs with 10% VisionBlue in culture medium for 3 h, and measured fluorescence intensity on a fluorescence plate reader (Infinite M1000 PRO, Tecan) at Ex=530-570 nm, Em=590-620 nm. […] We quantified EdU positive cells using the MetaMorph Image Analysis software (Molecular Devices). Data analyses were blinded, where researchers performing cell scoring were unaware of the treatment condition given to sample groups analyzed.

aged MuSCs = assay: Aged MuSC numbers after acute 24 hr treatment, hydrogel culture; type: cell-based, mouse; conditions: 1-day pulse; PGE2 10 ng/ml or SW033291 1 μM; assayed day 7
Experimental: as §1, §2

[2] = system: hematopoietic, liver, and colon tissues; conditions: delivery of 15-PGDH inhibitor; cited from earlier work
MuSCs [3] = assay: Quantitative RT-PCR of MuSC transcripts; type: cell-based, mouse; conditions: aged MuSCs, 1-day pulse
Source text: We isolated RNA from MuSCs using the RNeasy Micro Kit (Qiagen). For muscle samples, we snap froze the tissue in liquid nitrogen, homogenized the tissues using a mortar and pestle, followed by syringe and needle trituration, and then isolated RNA using Trizol (Invitrogen). We reverse-transcribed cDNA from total mRNA from each sample using the SensiFAST™ cDNA Synthesis Kit (Bioline). We subjected cDNA to RT-PCR using SYBR Green PCR Master Mix (Applied Biosystems) or TaqMan Assays (Applied Biosystems) in an ABI 7900HT Real-Time PCR System (Applied Biosystems). We cycled samples at 95° C. for 10 min and then 40 cycles at 95° C. for 15 s and 60° C. for 1 min. To quantify relative transcript levels, we used 2-ΔΔCt to compare treated and untreated samples and expressed the results relative to Gapdh. For SYBR Green qRT-PCR, we used the following primer sequences: Gapdh. forward 5′-[…]-3′ (SEQ ID NO: 1), reverse 5′-CCCTTTTGGCTCCACCCT-3′ (SEQ ID NO: 2); Hpgd, forward 5′-[…]-3′ (SEQ ID NO: 3), reverse 5′-[…]-3′ (SEQ ID NO: 4); Ptges, forward 5′-GCTGTCATCACAGGCCAGA-3′ (SEQ ID NO: 5), reverse 5′-[…]-3′ (SEQ ID NO: 6); Ptges2, forward 5′-[…]-3′ (SEQ ID NO: 7), reverse 5′-[…]-3′ (SEQ ID NO: 8); Ptger1, forward 5′ GTGGTGTCGTGCATCTGCT-3′ (SEQ ID NO: 9), reverse, 5′ […]-3′ (SEQ ID NO: 10), and Ptger2, forward 5′-[…]-3′ (SEQ ID NO: 11), reverse 5′-[…]-3′ (SEQ ID NO: 12). TaqMan Assays (Applied Biosystems) were used to quantify Pax7. Myogenin. Slco2a1 (PGT), Ptger3 and Ptger4 in samples according to the manufacturer instructions with the TaqMan Universal PCR Master Mix reagent kit (Applied Biosystems). Transcript levels were expressed relative to Gapdh levels. For SYBR Green qPCR, Gapdh qPCR was used to normalize input cDNA samples. For Taqman qPCR, multiplex qPCR enabled target signals (FAM) to be normalized individually by their internal Gapdh signals (VIC).

MuSCs [4] = assay: MuSC transplantation into injured TA muscle, engraftment by bioluminescence imaging; type: in vivo, mouse
[5] = system: tibialis anterior (TA) muscle; assay: Intramuscular dmPGE2 after cardiotoxin injury of TA, histology (PAX7, myofiber CSA); type: in vivo, mouse
Experimental: We used an injury model entailing intramuscular injection of 10 μl of notexin (10 μg ml^−1; Latoxan) or cardiotoxin (10 μM; Latoxan) into the TA muscle. For cryoinjury, an incision was made in the skin overlying the TA muscle and a copper probe, chilled in liquid nitrogen, was applied to the TA muscle for three 10 s intervals, allowing the muscle to thaw between each application of the cryoprobe. When indicated, 48 hr after injury either 16,16-Dimethyl Prostaglandin E2 (dmPGE2) (13 nmol, Tocris, catalog #4027) or vehicle control (PBS) was injected into the TA muscle. The contralateral TA was used as an internal control. We collected tissues 14 days post-injury for analysis.
We collected and prepared recipient TA muscle tissues for histology as previously described^5,6. We incubated transverse sections with anti-LAMININ (Millipore, clone A5, catalog #05-206, 1:200), and anti-PAX7 (Santa Cruz Biotechnology, catalog #sc-81648, 1:50) primary antibodies and then with AlexaFluor secondary Antibodies (Jackson ImmunoResearch Laboratories, 1:200). We counterstained nuclei with DAPI (Invitrogen). We acquired images with an AxioPlan2 epifluorescent microscope (Carl Zeiss Microimaging) with Plan NeoFluar 10×/0.30NA or 20×/0.75NA objectives (Carl Zeiss) and an ORCA-ER digital camera (Hamamatsu Photonics) controlled by the SlideBook (3i) software. The images were cropped using Adobe Photoshop with consistent contrast adjustments across all images from the same experiment. The image composites were generated using Adobe Illustrator. We analyzed the number of PAX7 positive cells using the MetaMorph Image Analysis software (Molecular Devices), and the fiber area using the Baxter Algorithms for Myofiber Analysis that identified the fibers and segmented the fibers in the image to analyze the area of each fiber. For PAX7 quantification we examined serial sections spanning a depth of at least 2 mm of the TA. For fiber area at least 10 fields of LAMININ-stained myofiber cross-sections encompassing over 400 myofibers were captured for each mouse as above. Data analyses were blinded. The researchers performing the imaging acquisition and scoring were unaware of treatment condition given to sample groups analyzed.

[6] = system: gastrocnemius (GA) muscle; assay: In vivo muscle force after downhill treadmill run, aged mice (Example 1); set-up: species or system mouse; conditions: dmPGE2 daily 5 days in week 1, force at week 5
Experimental: Aged mice (18 mo.) were subjected to downhill treadmill run for 2 consecutive weeks. During week 1, mice ran daily for 5 days and rested on days 6 and 7. Two hours after each treadmill run during week 1, each (lateral and medial) gastrocnemius (GA) muscle from both legs of each mouse was injected with a dose of either PBS (vehicle control) or 13 nM dmPGE2 (experimental group). During week 2, mice were subjected to 5 days treadmill run only. The treadmill run was performed using the Exer3/6 (Columbus Instruments). Mice ran for 10 minutes on the treadmill at 20 degrees downhill, starting at a speed of 7 meters/min. After 3 min, the speed was increased by 1 meter/min to a final speed of 14 meter/min. […] Force measurements were on the GA muscles at week 5 based on a protocol published previously^5. […] Data were collected with a PCI-6251 acquisition card (National Instruments) and analyzed in Matlab. We calculated specific force values by normalizing the force measurements by the muscle physiological cross-sectional areas (PCSAs), which were similar between the control and the experimental PGE2 treated group (Table 2). PCSA (measured in mm^2) was calculated according to the following equation^12: PCSA (mm^2)=[mass (g)×Cos θ]÷[ρ(g/mm^3)×fiber length (mm)], where θ is pennation angle of the fiber and ρ is muscle density (0.001056 g/mm^3). […]

endogenous MuSCs = assay: Endogenous MuSCs by Pax7-luciferase BLI after cardiotoxin injury; type: in vivo, mouse
Experimental: We performed bioluminescence imaging (BLI) using a Xenogen-100 system, as previously described^1,5,6. Briefly, we anesthetized mice using isofluorane inhalation and administered 120 μL D-luciferin (0.1 mmol kg^−1, reconstituted in PBS; Caliper LifeSciences) by intraperitoneal injection. We acquired BLI using a 60 s exposure at F-stop=1.0 at 5 minutes after luciferin injection. Digital images were recorded and analyzed using Living Image software (Caliper LifeSciences). We analyzed images with a consistent region-of-interest (ROI) placed over each hindlimb to calculate a bioluminescence signal. We calculated a bioluminescence signal in radiance (p s^−1 cm^−2 sr^−1) value of 10^4 to define an engraftment threshold. This radiance threshold of 10^4 is approximately equivalent to the total flux threshold in p/s reported previously. This BLI threshold corresponds to the histological detection of one or more GFP+ myofibers^1,5,6. We performed BLI imaging every week after transplantation.
For Pax7^CreERT2; Rosa26-LSL-Luc mice experiments, we treated mice with five consecutive daily intraperitoneal injections of tamoxifen to activate luciferase expression under the control of the Pax7 promoter. A week after the last tamoxifen injection, mice were subjected to intramuscular injection of 10 μl of cardiotoxin (10 μM; Latoxan), which we designated as day 0 of the assay. […]

Tibialis anterior (TA) = assay: Muscle twitch force after injury and indomethacin injection; type: in vivo, mouse; conditions: day 14 post-injury, indomethacin into cardiotoxin-injured muscles

**Q.** For CC(C(=O)Nc1cc(C#N)ccc1CCCC(=O)O)c1ccc(F)c2ccccc12 (stereo not shown) [ONO-AE3-208], which “proliferation induced by PGE2 in presence of EP4 antagonist” value (MuSCs [1]) is on record?
**A.** blunted

**Q.** Which “proliferation of aged MuSCs” value (aged MuSCs) does the source give for CCCC[S+]([O-])c1sc2nc(-c3cccs3)cc(-c3ccccc3)c2c1N (stereo not shown) [SW033291] here?
**A.** increase

**Q.** And the “regeneration of hematopoietic, liver, and colon tissues” value [2]?
**A.** enhance regeneration

**Q.** What about the “Pax7 expression in aged MuSCs” value (MuSCs [3]) of the same molecule?
**A.** maintenance

**Q.** Which results are given for CCCCC(C)(C)[C@H](O)/C=C/[C@H]1[C@H](O)CC(=O)[C@@H]1C/C=C\CCCC(=O)O [dmPGE2, 16,16-dimethyl prostaglandin E2]?
**A.** engraftment of aged MuSCs relative to controls (MuSCs [4]; aged MuSCs (250 cells) coinjected with dmPGE2): significantly enhanced; engraftment of young MuSCs relative to controls (MuSCs [4]; freshly sorted young MuSCs (250 cells) coinjected with 13 nmol dmPGE2): significantly enhanced; myofiber sizes ([5]; aged mice, fourteen days post-injury): increase; increase in the number of endogenous MuSCs ([5]; aged mice, fourteen days post-injury, single dmPGE2 injection): 24±2%; distribution of myofibers (cross-sectional area) ([5]; young mice, day 14 post injury): shifted toward larger sizes; increase in endogenous PAX7-expressing MuSCs ([5]; young mice, fourteen days post cardiotoxin injury, single dmPGE2 bolus): 60+15%; effect on endogenous MuSCs in the absence of injury ([5]; young mice, no injury): no effect; specific tetanic force [6]: significantly increased; specific twitch force [6]: significantly increased; endogenous MuSCs assayed by Pax7-luciferase BLI (endogenous MuSCs; dmPGE2 3 days after cardiotoxin injury): Increase

**Q.** With COc1ccc2c(c1)c(CC(=O)O)c(C)n2C(=O)c1ccc(Cl)cc1 [indomethacin] as the molecule, how does the “luciferase activity (muscle stem cell activation)” value (endogenous MuSCs; indomethacin injected three days post-cardiotoxin injury) read?
**A.** significant decrease

**Q.** And the “Twitch force compared to control group” value (Tibialis anterior (TA))?
**A.** significant loss
